Source: patent publication US6525001B1, “Substituted pyrimidine and pyridine herbicides” (Mid-American Commercialization Corporation, priority 1997, dated 2003)

Assays:
Experiment in all cases: Test B pre-/postemergence
Type in all cases: in vivo
Parameters in all cases: key: 0 is no effect; 10 is complete control
corn (Zea mays) = tested on: corn (Zea mays)
Summary of the method: (§1)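 Compounds in a surfactant-containing, non-phytotoxic solvent blend are applied to freshly planted seed (preemergence) and, concurrently, to seedlings of 2 to 18 cm at 1–4 leaves (postemergence). Plants stay in the greenhouse twelve to sixteen days and are then scored visually from 0 (no effect) to 10 (complete control).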

[1] = tested on: cocklebur (Xanthium strumarium); conditions: for Plant response rating, Cocklebur: Postemergence
Summary of the method: as §1

wild oat (Avena fatua) = tested on: wild oat (Avena fatua)
Summary of the method: as §1

[2] = tested on: bedstraw (Galium aparine)
Summary of the method: as §1

soybean (Glycine max) = tested on: soybean (Glycine max)
Summary of the method: as §1

[3] = tested on: velvetleaf (Abutilon theophrasti)
Summary of the method: as §1

[4] = tested on: momingglory (Ipomoea hederacea)
Summary of the method: as §1

[5] = tested on: pigweed (Amaranthus retroflexus)
Summary of the method: as §1

[6] = tested on: blackgrass (Alopecurus myosuroides)
Summary of the method: as §1

[7] = tested on: crabgrass (Digitaria sanguinalis)
Summary of the method: as §1

rape (Brassica napus) = tested on: rape (Brassica napus)
Summary of the method: as §1

[8] = tested on: sugar beet (Beta vulgaris)
Summary of the method: as §1

[9] = tested on: wheat (Triticum aestivum)
Summary of the method: as §1

[10] = tested on: broadleaf signalgrass (Brachiaria decumbens)
Summary of the method: as §1

For `Cc1cnc(-c2ccc(C(F)(F)F)cc2)nc1Cc1cccc(OC(F)(F)F)c1` [Compound 15], the “Plant response rating, Corn” value (corn (Zea mays); Rate 62 g/ha, Postemergence) was 3, the “Corn plant response rating” value (corn (Zea mays); Rate 62 g/ha, Preemergence) was 1 and the “Plant response rating, Corn” value (corn (Zea mays); Rate 125 g/ha, Postemergence) was 4. For the same compound, the “Corn plant response rating” value (corn (Zea mays); Rate 125 g/ha, Preemergence) was 1, the “Plant response rating, Corn” value (corn (Zea mays); Rate 250 g/ha, Postemergence) was 5 and the “Plant response rating, Corn” value (corn (Zea mays); Rate 250 g/ha, Preemergence) was 2. The “Plant response rating, Cocklebur” value ([1]; Rate 62 g/ha) was 9, the “Plant response rating, Cocklebur” value ([1]; Rate 125 g/ha) was 9 and the “Cocklebur plant response rating” value ([1]; Rate 125 g/ha, Preemergence) was 1. The “Plant response rating, Cocklebur” value ([1]; Rate 250 g/ha) was 10, the “Plant response rating, Wild oats” value (wild oat (Avena fatua); Rate 62 g/ha, Postemergence) was 6 and the “Wild oats plant response rating” value (wild oat (Avena fatua); Rate 62 g/ha, Preemergence) was 8. The “Plant response rating, Wild oats” value (wild oat (Avena fatua); Rate 125 g/ha, Postemergence) was 7, the “Wild oats plant response rating” value (wild oat (Avena fatua); Rate 125 g/ha, Preemergence) was 9 and the “Plant response rating, Wild oats” value (wild oat (Avena fatua); Rate 250 g/ha, Postemergence) was 9. For the same compound, the “Plant response rating, Wild oats” value (wild oat (Avena fatua); Rate 250 g/ha, Preemergence) was 9, the “Plant response rating, Bedstraw” value ([2]; Rate 62 g/ha, Postemergence) was 9 and the “Bedstraw plant response rating” value ([2]; Rate 62 g/ha, Preemergence) was 6. For the same compound, the “Plant response rating, Bedstraw” value ([2]; Rate 125 g/ha, Postemergence) was 9, the “Bedstraw plant response rating” value ([2]; Rate 125 g/ha, Preemergence) was 8 and the “Plant response rating, Bedstraw” value ([2]; Rate 250 g/ha, Postemergence) was 9. For the same compound, the “Plant response rating, Bedstraw” value ([2]; Rate 250 g/ha, Preemergence) was 8, the “Plant response rating, Soybean” value (soybean (Glycine max); Rate 62 g/ha, Postemergence) was 9 and the “Soybean plant response rating” value (soybean (Glycine max); Rate 62 g/ha, Preemergence) was 0. The “Plant response rating, Soybean” value (soybean (Glycine max); Rate 125 g/ha, Postemergence) was 9, the “Soybean plant response rating” value (soybean (Glycine max); Rate 125 g/ha, Preemergence) was 1 and the “Plant response rating, Soybean” value (soybean (Glycine max); Rate 250 g/ha, Postemergence) was 9. The “Plant response rating, Soybean” value (soybean (Glycine max); Rate 250 g/ha, Preemergence) was 1, the “Plant response rating, Velvetleaf” value ([3]; Rate 62 g/ha, Postemergence) was 5 and the “Velvetleaf plant response rating” value ([3]; Rate 62 g/ha, Preemergence) was 4. The “Plant response rating, Velvetleaf” value ([3]; Rate 125 g/ha, Postemergence) was 8, the “Velvetleaf plant response rating” value ([3]; Rate 125 g/ha, Preemergence) was 7 and the “Plant response rating, Velvetleaf” value ([3]; Rate 250 g/ha, Postemergence) was 8. The “Plant response rating, Velvetleaf” value ([3]; Rate 250 g/ha, Preemergence) was 7, the “Plant response rating, Morningglory” value ([4]; Rate 62 g/ha, Postemergence) was 8 and the “Morningglory plant response rating” value ([4]; Rate 62 g/ha, Preemergence) was 4. The “Plant response rating, Morningglory” value ([4]; Rate 125 g/ha, Postemergence) was 8, the “Morningglory plant response rating” value ([4]; Rate 125 g/ha, Preemergence) was 7 and the “Plant response rating, Morningglory” value ([4]; Rate 250 g/ha, Postemergence) was 9. The “Plant response rating, Morningglory” value ([4]; Rate 250 g/ha, Preemergence) was 9, the “Plant response rating, Redroot pigweed” value ([5]; Rate 62 g/ha, Postemergence) was 9 and the “Redroot pigweed plant response rating” value ([5]; Rate 62 g/ha, Preemergence) was 6. For the same compound, the “Plant response rating, Redroot pigweed” value ([5]; Rate 125 g/ha, Postemergence) was 9, the “Redroot pigweed plant response rating” value ([5]; Rate 125 g/ha, Preemergence) was 10 and the “Plant response rating, Redroot pigweed” value ([5]; Rate 250 g/ha, Postemergence) was 9. For the same compound, the “Plant response rating, Redroot pigweed” value ([5]; Rate 250 g/ha, Preemergence) was 10, the “Plant response rating, Blackgrass” value ([6]; Rate 62 g/ha, Postemergence) was 6 and the “Blackgrass plant response rating” value ([6]; Rate 62 g/ha, Preemergence) was 9. For the same compound, the “Plant response rating, Blackgrass” value ([6]; Rate 125 g/ha, Postemergence) was 9, the “Blackgrass plant response rating” value ([6]; Rate 125 g/ha, Preemergence) was 10 and the “Plant response rating, Blackgrass” value ([6]; Rate 250 g/ha, Postemergence) was 9. The “Plant response rating, Blackgrass” value ([6]; Rate 250 g/ha, Preemergence) was 10, the “Plant response rating, Crabgrass” value ([7]; Rate 62 g/ha, Postemergence) was 9 and the “Crabgrass plant response rating” value ([7]; Rate 62 g/ha, Preemergence) was 9. For the same compound, the “Plant response rating, Crabgrass” value ([7]; Rate 125 g/ha, Postemergence) was 9, the “Crabgrass plant response rating” value ([7]; Rate 125 g/ha, Preemergence) was 10 and the “Plant response rating, Crabgrass” value ([7]; Rate 250 g/ha, Postemergence) was 9. The “Plant response rating, Crabgrass” value ([7]; Rate 250 g/ha, Preemergence) was 10, the “Plant response rating, Rape” value (rape (Brassica napus); Rate 62 g/ha, Postemergence) was 9 and the “Rape plant response rating” value (rape (Brassica napus); Rate 62 g/ha, Preemergence) was 6. For the same compound, the “Plant response rating, Rape” value (rape (Brassica napus); Rate 125 g/ha, Postemergence) was 9, the “Rape plant response rating” value (rape (Brassica napus); Rate 125 g/ha, Preemergence) was 9 and the “Plant response rating, Rape” value (rape (Brassica napus); Rate 250 g/ha, Postemergence) was 9. For the same compound, the “Plant response rating, Rape” value (rape (Brassica napus); Rate 250 g/ha, Preemergence) was 9, the “Plant response rating, Sugarbeets” value ([8]; Rate 62 g/ha, Postemergence) was 9 and the “Sugarbeets plant response rating” value ([8]; Rate 62 g/ha, Preemergence) was 10. For the same compound, the “Plant response rating, Sugarbeets” value ([8]; Rate 125 g/ha, Postemergence) was 9, the “Sugarbeets plant response rating” value ([8]; Rate 125 g/ha, Preemergence) was 10 and the “Plant response rating, Sugarbeets” value ([8]; Rate 250 g/ha, Postemergence) was 10. For the same compound, the “Plant response rating, Sugarbeets” value ([8]; Rate 250 g/ha, Preemergence) was 10, the “Plant response rating, Wheat” value ([9]; Rate 62 g/ha, Postemergence) was 4 and the “Wheat plant response rating” value ([9]; Rate 62 g/ha, Preemergence) was 2. For the same compound, the “Plant response rating, Wheat” value ([9]; Rate 125 g/ha, Postemergence) was 4, the “Wheat plant response rating” value ([9]; Rate 125 g/ha, Preemergence) was 4 and the “Plant response rating, Wheat” value ([9]; Rate 250 g/ha, Postemergence) was 6. For the same compound, the “Plant response rating, Wheat” value ([9]; Rate 250 g/ha, Preemergence) was 7, the “Plant response rating, B. signalgrass” value ([10]; Rate 62 g/ha, Postemergence) was 4 and the “B. signalgrass plant response rating” value ([10]; Rate 62 g/ha, Preemergence) was 9. The “Plant response rating, B. signalgrass” value ([10]; Rate 125 g/ha, Postemergence) was 4, the “B. signalgrass plant response rating” value ([10]; Rate 125 g/ha, Preemergence) was 9 and the “Plant response rating, B. signalgrass” value ([10]; Rate 250 g/ha, Postemergence) was 8. The “Plant response rating, B. signalgrass” value ([10]; Rate 250 g/ha, Preemergence) was 9.
